Measurements from PubChem BioAssay (NCI).
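Interpolation was linear, between the two tested concentrations surrounding the appropriate level; five concentrations were tested over 48 hours in 96-well plates. The concentration for 50% growth inhibition is given as GI50. TGI is the concentration that stops growth completely.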

Key:
Test in all cases: growth of human tumour cells (NCI), 48 h
COLO 205 colon = tested on: COLO 205 colon
NCI/ADR-RES ovarian = tested on: NCI/ADR-RES ovarian
NCI-H23 lung = tested on: NCI-H23 lung
OVCAR-5 ovarian = tested on: OVCAR-5 ovarian
SK-MEL-28 melanoma = tested on: SK-MEL-28 melanoma
CCRF-CEM leukemia = tested on: CCRF-CEM leukemia
SK-OV-3 ovarian = tested on: SK-OV-3 ovarian
EKVX NSCLC = tested on: EKVX NSCLC
HCC-2998 colon = tested on: HCC-2998 colon
OVCAR-4 ovarian = tested on: OVCAR-4 ovarian

SMILES	GI50 (COLO 205 colon) [µM]	TGI (COLO 205 colon) [µM]	GI50 (NCI/ADR-RES ovarian) [µM]	TGI (NCI/ADR-RES ovarian) [µM]	GI50 (NCI-H23 lung) [µM]	TGI (NCI-H23 lung) [µM]	GI50 (OVCAR-5 ovarian) [µM]	TGI (OVCAR-5 ovarian) [µM]	GI50 (SK-MEL-28 melanoma) [µM]	TGI (SK-MEL-28 melanoma) [µM]	GI50 (CCRF-CEM leukemia) [µM]	TGI (CCRF-CEM leukemia) [µM]	GI50 (SK-OV-3 ovarian) [µM]	TGI (SK-OV-3 ovarian) [µM]	GI50 (EKVX NSCLC) [µM]	TGI (EKVX NSCLC) [µM]	GI50 (HCC-2998 colon) [µM]	TGI (HCC-2998 colon) [µM]	GI50 (OVCAR-4 ovarian) [µM]	TGI (OVCAR-4 ovarian) [µM]
NCCCC[C@@H]1NC(=O)[C@H](CC(=O)O)NC(=O)CNC(=O)[C@H](CCCN=C(N)N)NC(=O)[C@@H](N)CSSC[C@@H](C(=O)O)NC(=O)[C@H](CC(=O)O)NC(=O)[C@@H]2CCCN2C(=O)CNC1=O	> 100	> 100	> 100	> 100	> 100	> 100	> 100	> 100	> 100	> 100	> 100	> 100	> 100	> 100	> 100	> 100	> 100	> 100	> 100	> 100
O=S(=O)(NNc1ccccc1)c1ccccc1		22.3		36.1		> 100		> 100		> 100		50		> 100		31.9		> 100		31.5
CCOC(=O)c1cc2c(cc1Cl)SC(=Nc1ccccc1)N(S(=O)(=O)c1ccc(Cl)cc1)S2(=O)=O	9.06	> 100	18.3	36.5	13.5	29.8	19.4	36.8	21.6	74.6	2.57	7.4	17.4	35.2	16.6	31.8	13.5	27.9	31.5	> 100
COCc1c(-c2cc3cc(C)cc(OC)c3s2)c2c(N)ncnn2c1CN1CCNC(=O)C1	5.13	24.4	24.3	> 100	4.45	70.7	4.11	77	9.38	70.3	3.42	53.8	2.62	7.72	2.67	29.8	8.37	> 100	1.88	61.1
Cc1ccc(/C=N/Nc2nc(Nc3ccccc3)nc(-n3nc(C)cc3C)n2)cc1	3.6	13.4	2.53	8.67	5.41	24.3	15.4	> 100	6.12	> 100	3.72	> 100	11.8	> 100	3	31.5	2.71	6.6	3.06	25.5
COc1ccc2c(c1OC)CO[C@@H]2[C@H]1c2c(cc3c(c2OC)OCO3)CCN1S(=O)(=O)c1cn(C)cn1	1.72	11.6	1.97	8.35	3.43	> 100	4.22	> 100	5.4	> 100	0.944	> 100	2.57	> 100	13.1	> 100	3.23	> 100	6.65	> 100
CCN(Cc1ccccc1)C1CCN(Cc2cc(Br)ccc2O)CC1	17	39.6	31.9	> 100	34.9	> 100	> 100	> 100	22	59.4	39.3	> 100	77.4	> 100	31.9	> 100	33.7	> 100	33.7	> 100
O=C(Nc1cccc(O)c1)c1ccc(NC2=C(Cl)C(=O)N(Cc3ccc(Cl)cc3Cl)C2=O)cc1	1.9	4.18	21.6	48.1	19.6	36.1	18.8	34.1	3.41	10.1	0.244	0.95	4.6	14.7	6.74	13.6	18.9	33.8	5.43	12.7
COc1ccc2c(c1)nc(C(=O)c1ccco1)c(C(F)(F)F)[n+]2[O-]	> 100	> 100	> 100	> 100	> 100	> 100	> 100	> 100	> 100	> 100	> 100	> 100	> 100	> 100	> 100	> 100	> 100	> 100	> 100	> 100
COC(=O)N[C@H](C(=O)O)C(C)O[Si](C)(C)C(C)(C)C (stereo not given in full)		> 100		> 100		> 100		> 100		> 100		> 100		> 100		> 100		> 100		> 100
